Measurements published in patent US20260234188A1, “CHEMOKINE-BINDING PEPTIDES” (Oxford University Innovation Limited, priority 2022, published 2026).
Ends that are not written are not given here. Peptide text beside a SMILES is read from it.

Experiments:
[1] = target: T1, CXCL6 (Homo sapiens, UniProt P80162); test: cell-based; conditions: HD2 mutant peptides 10 μM, chemokine at EC80
T1 sequence (P80162 38-114): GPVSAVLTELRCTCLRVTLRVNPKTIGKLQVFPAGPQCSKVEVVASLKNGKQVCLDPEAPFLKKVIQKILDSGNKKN
Protocol: FIG. 11. […] Technical replicates are shown as individual data points. […] The response curve (solid blue line) and its 95% confidence interval (grey ribbon) were calculated using a 4-parameter log-logistic plot.
(§1) The J:CXCR1 cell line was generated by transfecting Jurkat cells by electroporation with PvuI-linearized plasmid D1398 and selecting with blasticidin (Sigma-Aldrich, Cat #203350, […]). […] J:CXCR1 cells were cultured in RPMI-1640 media (Gibco), supplemented with 10% FBS and 5 mM L-Glutamine with blasticidin. For J:CXCR1 migration assays, 300,000 cells/well were added to the top chamber of a 3 μm Transwell insert (Corning) in 50 μL of migration media (RPMI-1640, 0.5% FBS, 4 mM L-Glutamine, 0.05% DMSO). The bottom chamber contained 150 μL of chemokine, with or without peptide. Cells were migrated at 37° C. in 5% CO2 for 4 hours. The plate was incubated on a shaking platform for 10 minutes, 800 rpm, at 37° C., and 150 μL from the bottom of the plate transferred into a U-bottom plate containing 50 μL of migration media. Cell counts were determined by Attune NxT Flow Cytometer Plate Reader (ThermoFisher), based on cell size parameters FSC-H/SSC-H. Experiments were performed in 3 technical and 3 biological replicates. THP-1 migration assays were carried out using methods known in the art. Activated T-cell assays were carried out using methods known in the art, with the following modifications in the isolation process. Peripheral blood cells were obtained from leucocyte cones (NHS Blood Transfusion Services), following which, T-cells were isolated using two rounds of human CD8+ T-cell isolation kit (480011, BioLegend). At day 10 after activation, T-cells were frozen at 20 E6 cells/ml in TexMACS medium supplemented with 10% DMSO (D2650, Sigma) in liquid nitrogen. Prior to use, activated T-cells were recovered for 24 hours in TexMACs medium at 0.3 E6 cells/ml and incubated at 37° C. in 5% CO2. Chemokine sources are described in Supplementary information Table 3. Statistical significances between control experimental groups was evaluated using Dunnett's test. IC50 experiments were performed at the EC80 dose of chemokine. EC80 was calculated by fitting a chemokine dose-response curve with 3 parameters (fixing the top to 100%). IC50 was calculated by fitting an inhibitor response curve with 4 parameters.
(§2) Migration assays using THP1, activated T-cell (ATC) and J:CXCR1 (Jurkat cells stably transfected with CXCR1 receptor) were performed as described previously. IC50 experiments were performed at the EC80 dose of chemokine. EC80 was calculated by fitting a chemokine dose-response curve with 3 parameters (fixing the top to 100%). IC50 was calculated by fitting an inhibitor response curve with 4 parameters. R-packages used were ggupset_0.3.0, DescTools_0.99.44, and drc_3.0-1.

[2] = target: CXCL12 (Homo sapiens, UniProt P48061); type: cell-based; design: activity in inhibiting migration of activated T cells in comparison to HD2_Y5W: dose or concentration left out as unconfirmed; conditions: chemokine at EC80; for chemotaxis compared with the parental HD2 peptide: HD2 mutant peptides 10 μM
Protocol: FIG. 22. Effect of selected combinatorial HD2 mutations on chemotaxis. FIG. 22A. Box-whisker plot showing the effect of the exemplar single and combinatorically mutant (CM) HD2 peptides on activated-T cell (ATC) migration induced by CXCL12. All experiments were performed as at least three technical and three biological replicates, and individual data points are indicated. […] HD2SCR is a scrambled version of HD2. […] Statistically significant differences (compared to control, HD2_Y5W, coloured blue), using Dunnett's test with correction for multiple comparisons, are indicated by asterisks: ****=P≤0.0001, ***=P≤0.001, **=P≤0.01, *=P≤0.05. All comparisons were made to HD2_Y5W, as it is present in CM539, CM452, and CM304. […] Technical replicates are shown as individual data points. […] The response curve (solid blue line) and its 95% confidence interval (grey ribbon) were calculated using a 4-parameter log-logistic plot. The agonist and estimated IC50 (dotted green line) are indicated.
as §1, §2

CXCL12, sequence (P48061 22-89 limits assumed): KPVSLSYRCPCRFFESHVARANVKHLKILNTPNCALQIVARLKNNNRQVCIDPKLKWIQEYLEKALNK

| Molecule | chemotaxis compared with the parental HD2 peptide [1] | chemotaxis compared with the parental HD2 peptide [2] | activity in inhibiting migration of activated T cells in comparison to HD2_Y5W ([2]; peptides final concentration as printed) |
| --- | --- | --- | --- |
| EEDDYTAYWPLTCYFT [A9W] | significant reduction in chemotaxis | significant reduction in chemotaxis | – |
| EEDDWTAYAPLTCYFT-NH2 [HD2_W5, EEDDWTAYAPLTCYFT] | – | significant reduction in chemotaxis | – |
| CC(C)C[C@H](NC(=O)[C@@H]1CCCN1C(=O)[C@H](C)NC(=O)[C@H](Cc1ccc(O)cc1)NC(=O)[C@H](C)NC(=O)[C@@H](NC(=O)[C@H](Cc1ccc(O)cc1)NC(=O)[C@H](CC(=O)O)NC(=O)[C@H](CC(=O)O)NC(=O)[C@H](CCC(=O)O)NC(=O)[C@@H](N)CCC(=O)O)[C@@H](C)O)C(=O)N[C@H](C(=O)N[C@@H](CS)C(=O)N[C@@H](Cc1ccc(O)cc1)C(=O)N[C@@H](Cc1ccccc1)C(=O)N[C@@H](CS)C(N)=O)[C@@H](C)O [HD2_C16, EEDDYTAYAPLTCYFC] (H-EEDDYTAYAPLTCYFC-NH2; N-terminus assumed) | significant reduction in chemotaxis | significant reduction in chemotaxis | potent inhibitor |
| EEDDYWAYAPLTCYFT [HD2_W6] | significant reduction in chemotaxis | – | – |
